BigSolDB 2.1

CC(=O)N[C@@H](CC(C)C)C(=O)O
solubility (mole fraction) (in acetone, 283.15 K): 0.00363 | solubility (mole fraction) (in acetone, 288.15 K): 0.00434 | solubility (mole fraction) (in acetone, 293.15 K): 0.00525 | solubility (mole fraction) (in acetone, 298.15 K): 0.0062 | solubility (mole fraction) (in acetone, 303.15 K): 0.00734 | solubility (mole fraction) (in acetone, 308.15 K): 0.00886 | solubility (mole fraction) (in acetone, 313.15 K): 0.0106 | solubility (mole fraction) (in acetone, 318.15 K): 0.0124 | solubility (mole fraction) (in acetone, 323.15 K): 0.0146 | solubility (mole fraction) (in acetonitrile, 283.15 K): 0.000712 | solubility (mole fraction) (in acetonitrile, 288.15 K): 0.000811 | solubility (mole fraction) (in acetonitrile, 293.15 K): 0.00114 | solubility (mole fraction) (in acetonitrile, 298.15 K): 0.00141 | solubility (mole fraction) (in acetonitrile, 303.15 K): 0.00163 | solubility (mole fraction) (in acetonitrile, 308.15 K): 0.00198 | solubility (mole fraction) (in acetonitrile, 313.15 K): 0.00249 | solubility (mole fraction) (in acetonitrile, 318.15 K): 0.00295 | solubility (mole fraction) (in acetonitrile, 323.15 K): 0.00335 | solubility (mole fraction) (in ethanol, 283.15 K): 0.0243 | solubility (mole fraction) (in ethanol, 288.15 K): 0.0278 | solubility (mole fraction) (in ethanol, 293.15 K): 0.0314 | solubility (mole fraction) (in ethanol, 298.15 K): 0.0353 | solubility (mole fraction) (in ethanol, 303.15 K): 0.0396 | solubility (mole fraction) (in ethanol, 308.15 K): 0.0456 | solubility (mole fraction) (in ethanol, 313.15 K): 0.0504 | solubility (mole fraction) (in ethanol, 318.15 K): 0.0567 | solubility (mole fraction) (in ethanol, 323.15 K): 0.0624 | solubility (mole fraction) (in ethyl acetate, 283.15 K): 0.00103 | solubility (mole fraction) (in ethyl acetate, 288.15 K): 0.00127 | solubility (mole fraction) (in ethyl acetate, 293.15 K): 0.0015 | solubility (mole fraction) (in ethyl acetate, 298.15 K): 0.00178 | solubility (mole fraction) (in ethyl acetate, 303.15 K): 0.00207 | solubility (mole fraction) (in ethyl acetate, 308.15 K): 0.00243 | solubility (mole fraction) (in ethyl acetate, 313.15 K): 0.0028 | solubility (mole fraction) (in ethyl acetate, 318.15 K): 0.00328 | solubility (mole fraction) (in ethyl acetate, 323.15 K): 0.00374 | solubility (mole fraction) (in isobutanol, 283.15 K): 0.0148 | solubility (mole fraction) (in isobutanol, 288.15 K): 0.0176 | solubility (mole fraction) (in isobutanol, 293.15 K): 0.0206 | solubility (mole fraction) (in isobutanol, 298.15 K): 0.0242 | solubility (mole fraction) (in isobutanol, 303.15 K): 0.0283 | solubility (mole fraction) (in isobutanol, 308.15 K): 0.0328 | solubility (mole fraction) (in isobutanol, 313.15 K): 0.0375 | solubility (mole fraction) (in isobutanol, 318.15 K): 0.0425 | solubility (mole fraction) (in isobutanol, 323.15 K): 0.0478 | solubility (mole fraction) (in isopropanol, 283.15 K): 0.0177 | solubility (mole fraction) (in isopropanol, 288.15 K): 0.0206 | solubility (mole fraction) (in isopropanol, 293.15 K): 0.0238 | solubility (mole fraction) (in isopropanol, 298.15 K): 0.0274 | solubility (mole fraction) (in isopropanol, 303.15 K): 0.0313 | solubility (mole fraction) (in isopropanol, 308.15 K): 0.0354 | solubility (mole fraction) (in isopropanol, 313.15 K): 0.0405 | solubility (mole fraction) (in isopropanol, 318.15 K): 0.0464 | solubility (mole fraction) (in isopropanol, 323.15 K): 0.0526 | solubility (mole fraction) (in methanol, 283.15 K): 0.0309 | solubility (mole fraction) (in methanol, 288.15 K): 0.0357 | solubility (mole fraction) (in methanol, 293.15 K): 0.0403 | solubility (mole fraction) (in methanol, 298.15 K): 0.0456 | solubility (mole fraction) (in methanol, 303.15 K): 0.0514 | solubility (mole fraction) (in methanol, 308.15 K): 0.0589 | solubility (mole fraction) (in methanol, 313.15 K): 0.066 | solubility (mole fraction) (in methanol, 318.15 K): 0.0729 | solubility (mole fraction) (in methanol, 323.15 K): 0.0824 | solubility (mole fraction) (in methyl acetate, 283.15 K): 0.00106 | solubility (mole fraction) (in methyl acetate, 288.15 K): 0.00134 | solubility (mole fraction) (in methyl acetate, 293.15 K): 0.00159 | solubility (mole fraction) (in methyl acetate, 298.15 K): 0.00191 | solubility (mole fraction) (in methyl acetate, 303.15 K): 0.00223 | solubility (mole fraction) (in methyl acetate, 308.15 K): 0.00259 | solubility (mole fraction) (in methyl acetate, 313.15 K): 0.0033 | solubility (mole fraction) (in methyl acetate, 318.15 K): 0.00396 | solubility (mole fraction) (in methyl acetate, 323.15 K): 0.00453 | solubility (mole fraction) (in n-butanol, 283.15 K): 0.017 | solubility (mole fraction) (in n-butanol, 288.15 K): 0.0192 | solubility (mole fraction) (in n-butanol, 293.15 K): 0.0221 | solubility (mole fraction) (in n-butanol, 298.15 K): 0.0255 | solubility (mole fraction) (in n-butanol, 303.15 K): 0.0291 | solubility (mole fraction) (in n-butanol, 308.15 K): 0.0331 | solubility (mole fraction) (in n-butanol, 313.15 K): 0.0379 | solubility (mole fraction) (in n-butanol, 318.15 K): 0.0429 | solubility (mole fraction) (in n-butanol, 323.15 K): 0.0489 | solubility (mole fraction) (in n-propanol, 283.15 K): 0.0196 | solubility (mole fraction) (in n-propanol, 288.15 K): 0.0223 | solubility (mole fraction) (in n-propanol, 293.15 K): 0.0251 | solubility (mole fraction) (in n-propanol, 298.15 K): 0.0286 | solubility (mole fraction) (in n-propanol, 303.15 K): 0.0329 | solubility (mole fraction) (in n-propanol, 308.15 K): 0.0376 | solubility (mole fraction) (in n-propanol, 313.15 K): 0.0424 | solubility (mole fraction) (in n-propanol, 318.15 K): 0.0478 | solubility (mole fraction) (in n-propanol, 323.15 K): 0.0541 | solubility (mole fraction) (in n-propyl acetate, 283.15 K): 0.00087 | solubility (mole fraction) (in n-propyl acetate, 288.15 K): 0.00107 | solubility (mole fraction) (in n-propyl acetate, 293.15 K): 0.00126 | solubility (mole fraction) (in n-propyl acetate, 298.15 K): 0.00149 | solubility (mole fraction) (in n-propyl acetate, 303.15 K): 0.00177 | solubility (mole fraction) (in n-propyl acetate, 308.15 K): 0.00211 | solubility (mole fraction) (in n-propyl acetate, 313.15 K): 0.00249 | solubility (mole fraction) (in n-propyl acetate, 318.15 K): 0.003 | solubility (mole fraction) (in n-propyl acetate, 323.15 K): 0.00357 | solubility (mole fraction) (in sec-butanol, 283.15 K): 0.0177 | solubility (mole fraction) (in sec-butanol, 288.15 K): 0.0207 | solubility (mole fraction) (in sec-butanol, 293.15 K): 0.0241 | solubility (mole fraction) (in sec-butanol, 298.15 K): 0.0279 | solubility (mole fraction) (in sec-butanol, 303.15 K): 0.0325 | solubility (mole fraction) (in sec-butanol, 308.15 K): 0.037 | solubility (mole fraction) (in sec-butanol, 313.15 K): 0.042 | solubility (mole fraction) (in sec-butanol, 318.15 K): 0.0473 | solubility (mole fraction) (in sec-butanol, 323.15 K): 0.0541
